Target: Human TASK-1 channels (Homo sapiens (Human), UniProt O14649)
Assay: Activity on the TASK-1 channel in Xenopus oocytes (two-microelectrode voltage clamp)
Format: cell-based
Conditions: percentage inhibition of TASK-1 control current
Experimental: Human TASK-1 channels were expressed in Xenopus oocytes. […] Subsequently, TASK-1-encoding RNA synthesized in vitro was injected into oocytes. […] Oocytes were continuously superfused with ND96 buffer containing: NaCl 96 mM, KCl 2 mM, CaCl2 1.8 mM, MgCl2 1 mM, HEPES 5 mM (pH adjusted to 7.4 with NaOH). All experiments were performed at room temperature.
IC50 values were obtained by fitting the data to the general dose-response equation.

Sequence of Human TASK-1 channels (O14649 whole entry): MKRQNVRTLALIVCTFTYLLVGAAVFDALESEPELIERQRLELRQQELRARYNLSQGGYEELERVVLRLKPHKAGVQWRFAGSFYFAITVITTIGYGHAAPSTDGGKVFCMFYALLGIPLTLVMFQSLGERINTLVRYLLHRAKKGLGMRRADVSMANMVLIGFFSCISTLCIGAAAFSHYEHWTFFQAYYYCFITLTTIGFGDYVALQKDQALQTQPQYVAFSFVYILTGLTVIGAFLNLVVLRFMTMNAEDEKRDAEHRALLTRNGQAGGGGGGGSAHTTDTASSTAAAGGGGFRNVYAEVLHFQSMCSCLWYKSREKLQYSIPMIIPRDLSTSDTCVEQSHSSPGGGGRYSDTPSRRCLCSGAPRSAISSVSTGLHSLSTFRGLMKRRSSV

## COc1ccnc(Cn2nc(-c3cccc(C(F)(F)F)c3)c3c2CCN(C(C)=O)C3)c1 [Example 6q, 1-[1-(4-Methoxy-pyridin-2-ylmethyl)-3-(3-trifluoromethyl-phenyl)-1,4,6,7-tetrahydro-pyrazolo[4,3-c]pyridin-5-yl]-ethanone]
  Inhibition (%) at 5 μM: 70%
